Results published in patent US7307102B2, “Method of preventing or treating estrogen-dependent diseases and disorders” (Duke University, priority 1997, dated 2007).
Each block holds one compound with its values, some of them ahead of it.

Tests used:
human ER = biological target: T1, human ER (Homo sapiens, UniProt P03372); assay type: cell-based; details: MCF-7 cells, in the presence of 17-β-estradiol, 48 h, FIG. 12
T1 construct: expressed in transfected cells; host or cells: MCF-7

MCF-7 cells = experiment: [3H]-thymidine incorporation, E2 stimulated MCF-7 cell proliferation; assay type: cell-based, human; details: FIG. 19
Protocol: Experimental Design: Plate between 25,000 and 50,000 cells per well onto 24-well plates. Cells are plated in phenol red-free media. After attachment, cells are stimulated with either antiestrogen alone or estrogen and antiestrogen. Induction time ranges from 12-48 hours, depending on experiment.
Add 4λ (4 μCi) thymidine, [methyl-^3H]-to each well.
Incubate at 37° C. for 2-4 hours.
Aspirate media and wash twice with ice cold PBS.
Wash once with ice cold 10% TCA (trichloroacetic acid).
Add 2 mL 10% TCA to each well.
Incubate at 4° C. for 1-2 hours.
Transfer each well to scintillation vial containing 2 mL scintillation fluid.

ER-TAF1 = experiment: C3 promoter-luciferase cotransfection assay in HepG2 cells, ER-TAF1 (AF-2 disrupted); assay type: cell-based, human; details: for agonist activity on ER-TAF1: ER-TAF1, compound alone, FIG. 1B
Excerpt: (§1) FIGS. 1A and 1B. […] The human C3 promoter (−1807 to +58) fused to the firefly luciferase reporter gene was transfected along with an expression plasmid containing (FIG. 1A) the wild-type human estrogen receptor (ERwt), or (FIG. 1B) a mutated ER in which the AF-2 function had been disrupted (ER-TAFl) into HepG2 cells and tested for transcriptional activation in the presence of increasing concentrations of ER-modulator as indicated. Transfections were normalized for efficiency and cell number by cotransfecting an expression plasmid containing β-galactosidase. The normalized response was obtained by dividing light units by the activity of β-galactosidase as measured in an enzymatic assay. Triplicate transfections were performed. The data shown are representative of multiple experiments performed under similar conditions.
(§2) FIGS. 2A-2C. […] FIG. 2A. […] FIG. 2B. […] FIG. 2C. […] Transfections were normalized for efficiency and cell number by cotransfecting an expression plasmid containing β-galactosidase. The normalized response was obtained by dividing light units by the activity of β-galactosidase as measured in an enzymatic assay. Representative assays are shown in which triplicate transfections were performed. Error bars represent the standard error of the mean (SEM).
(§3) HepG2 cells were maintained in Modified Eagles Medium (MEM) (Life Technologies, Grand Island, N.Y.) plus 10% Fetal Calf Serum (FCS) (Life Technologies). Cells were plated in 24 well plates (coated with gelatin) 24 hours prior to transfection. DNA was introduced into the cells using Lipofectin (Life Technologies). Briefly, triplicate transfections were performed using 3 μg of total DNA. For standard transfections, 500 ng of pCMV-β-Gal (normalization vector), 1500 ng reporter (variable) and 1000 ng receptor (pRST7-hER (Dana et al, Mol. Endocrinol. 8:1193-1207 (1994)) were used for each triplicate. Incubation of the cells with Lipofectin proceeded for 3 hrs, at which time media was removed, cells were washed with PBS and then induced with the appropriate hormone diluted in phenol red-free media containing 10% charcoal stripped CS (Cyclone Inc.). Incubation with hormone continued for 48 hrs, after which cells were lysed and assayed for luciferase and β-galactosidase activity as previously described (Norris et al, JBC 270:22777-22782 (1995)).
(§4) A series of in vitro screens have been developed that permit the classification of ER-modulators into four mechanistically distinct groups (Tzukerman et al, Mol. Endocrinol. 8:21-30 (1994)). […] Using these assays, it has been possible to derive “fingerprints” of known ER-modulators (McDonnell et al, Mol. Endocrinol. 9:659-669 (1995)).
(§5) Subsequently, the transfected cells were assayed for luceriferase and β-galactosidase activity. Each data point in this experiment represents the average of triplicate determinations of the transcriptional activity under given experimental conditions.

ERα = biological target: T2, ERα (Homo sapiens, UniProt P03372); assay type: cell-based; details: HeLa cells, estradiol (10^−9), FIG. 14A
T2 construct: expressed in transfected cells; host or cells: HeLa
Excerpt: (§6) HeLa cells were transfected with either an ERα expression vector (see FIG. 14A) or an ERβ expression vector (see FIG. 14B) together with an estrogen responsive ERE-TK-luceriferase reporter construct.

[1] = biological target: T3, wild-type human estrogen receptor (ERwt) (Homo sapiens, UniProt P03372); experiment: C3 promoter-luciferase cotransfection assay in HepG2 cells, ERwt; assay type: cell-based
T3 construct: expressed in transfected cells; host or cells: HepG2
T3 sequence (P03372 1-595): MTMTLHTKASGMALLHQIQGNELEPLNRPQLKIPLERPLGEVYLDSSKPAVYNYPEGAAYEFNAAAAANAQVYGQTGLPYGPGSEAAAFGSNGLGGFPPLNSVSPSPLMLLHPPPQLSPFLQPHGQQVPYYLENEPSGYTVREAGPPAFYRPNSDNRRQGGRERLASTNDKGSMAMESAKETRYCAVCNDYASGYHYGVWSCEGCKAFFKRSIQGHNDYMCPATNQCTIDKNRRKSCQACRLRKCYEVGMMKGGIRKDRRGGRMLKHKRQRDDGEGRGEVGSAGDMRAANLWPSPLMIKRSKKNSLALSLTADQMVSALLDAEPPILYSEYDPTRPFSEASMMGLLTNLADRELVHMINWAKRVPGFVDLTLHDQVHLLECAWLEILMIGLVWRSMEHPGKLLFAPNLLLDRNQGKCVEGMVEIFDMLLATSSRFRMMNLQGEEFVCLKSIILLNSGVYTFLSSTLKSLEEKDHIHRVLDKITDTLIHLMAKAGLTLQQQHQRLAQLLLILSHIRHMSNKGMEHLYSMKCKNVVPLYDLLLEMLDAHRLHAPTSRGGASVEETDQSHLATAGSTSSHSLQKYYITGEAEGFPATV
Excerpt: as §1, §2, §3, §4, §5

ER-VP16 = ER-VP16 reporter of nuclear localization and DNA binding status of ER; assay type: cell-based
Excerpt: This was addressed using a modified ER (ER-VP16) to report on the nuclear localization and the DNA binding status of ER within a cell following ligand binding. This modified protein behaves exactly like ER in all respects except it activates transcription upon interaction with an estrogen response element (ERE) independent of the nature of the bound ligand (McDonnell et al, Mol. Endocrinol. 9:659-669 (1995)).

ERβ = ERβ (Homo sapiens, UniProt Q92731); details: HeLa cells, estradiol (10^−9), FIG. 14B
Sequence of ERβ (Q92731 whole entry): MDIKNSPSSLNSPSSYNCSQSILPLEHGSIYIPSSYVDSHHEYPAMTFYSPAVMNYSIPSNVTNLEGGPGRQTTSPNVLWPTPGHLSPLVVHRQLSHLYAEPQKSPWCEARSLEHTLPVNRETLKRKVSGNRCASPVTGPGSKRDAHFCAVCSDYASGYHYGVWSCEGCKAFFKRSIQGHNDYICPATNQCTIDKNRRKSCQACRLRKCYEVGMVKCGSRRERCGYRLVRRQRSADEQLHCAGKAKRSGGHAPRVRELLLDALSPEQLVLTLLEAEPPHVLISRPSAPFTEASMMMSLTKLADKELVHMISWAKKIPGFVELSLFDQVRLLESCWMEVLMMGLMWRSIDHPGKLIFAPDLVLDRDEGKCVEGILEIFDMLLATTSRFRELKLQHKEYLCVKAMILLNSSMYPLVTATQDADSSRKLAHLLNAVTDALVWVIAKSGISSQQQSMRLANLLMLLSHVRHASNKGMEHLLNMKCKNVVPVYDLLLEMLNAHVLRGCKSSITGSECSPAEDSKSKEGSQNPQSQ
Excerpt: as §6

[2] = Bone mineral density in ovariectomized rats (DEXA, pQCT); assay type: in vivo, rat; details: 90-day old OVX rats, oral, 28 days, FIG. 3A
Protocol: FIGS. 3A and 3B. […] FIG. 3A. […] FIG. 3B.
Animal preparation. […] At sacrifice, animals were euthanized with C02, body weights were recorded and the uteri were removed and weighed. Uterus, vagina and mammary tissue were fixed in 10% neutral buffered formalin. Samples for histologic processing were taken from the mid-point of each uterine horn. Tissue samples were embedded in paraffin, stained with haematoxylin and eosin and evaluated microscopically. Lumbar vertebrae and both left and right tibiae were excised. Total blood cholesterol was measured (Roche Biomedical Laboratories).

MCF-7/LCC2 = experiment: LCC2 study, MCF-7/LCC2 tumors in nude mice; assay type: in vivo, mouse; details: after 8 weeks, 1.0 mg every three days, FIG. 11
Protocol: This experiment was conducted to determine the ability of GW5638 to retard the growth of this cell line in nude mice relative to control or tamoxifen treated tumors.
40 OVX mice were prepared to accept cells and grouped as follows:
Control animals received nothing and groups 3 and 4 received 0.1 ml injections in corn oil every three days. Tumors were measured Q3 days with calipers, and the area calculated as follows: Area=½×w/2×π.

[3] = Uterotrophic assay in immature rats; details: 21 day old immature rats, oral
Protocol: FIG. 5. […] The data shown represent the mean value (±SEM).
Twenty-one day old female Sprague-Dawley rats (30-35 gms) were obtained from Harlan or Taconic Laboratories. Animals were sorted randomly into treatment groups of five, and average weights were recorded for each treatment group. Weights were recorded on each treatment day. […] On day of dosing, drug was diluted in 0.5% methyl cellulose, viscosity of 2% at 25° C.:400 centipoises (Sigma, St. Louis, Mo.)). Oral dosing by gavage was based on a total volume of 10 ml/kg body weight. […] Subcutaneous dosing was based on a total of 2 ml/kg body weight. […] On day 4, animals were sacrificed by C02 asphyxiation, body weights were obtained and uteri were removed, blotted and weighed. Data were expressed as uterine weight/body weight.
In this assay, uterine wet weight was used as a measure of ER-agonist activity in this tissue (FIG. 5).

SMILES: CC/C(=C(\c1ccc(O)cc1)c1ccc(/C=C/C(=O)O)cc1)c1ccccc1 [GW7604]
antiestrogen activity on C3-Luc transcription (human ER): Functions as an Antiestrogen | E2 stimulated MCF-7 cell proliferation (MCF-7 cells): Inhibits E2 Stimulated MCF-7 Cell Proliferation | inhibition of the partial agonist activity of raloxifene on ER-TAF1 (ER-TAF1; ER-TAF1): inhibited | inhibition of estradiol- and tamoxifen-induced ER-TAF1 transcriptional activity (ER-TAF1; ER-TAF1, FIG. 2B): capable of inhibiting | agonist activity on ER-TAF1 (ER-TAF1): functionally inactive | agonist activity on ER mutants (ER-TAF1; any ER-mutant examined, FIG. 13): does not exhibit agonist activity | inhibition of estradiol activated transcription, ERα (ERα): potent pan-antagonist of both forms of the human estrogen receptor | reversal of the inverse agonist activity of ICI182,780 ([1]; C3 promoter, co-addition with ICI182,780, FIG. 2C): completely reversed | inhibition of the agonist activity manifested by tamoxifen or estradiol ([1]; ERwt, 10^−8M 17-β-estradiol or tamoxifen, FIG. 2A): inhibited | agonist / inverse agonist activity on the C3 promoter ([1]; ERwt, compound alone, FIG. 1A/2A): do not demonstrate any agonist or antagonist activity | interaction of ER with target DNA (ER-VP16): facilitate efficient interactions of ER with target DNA | inhibition of estradiol activated transcription, ERβ (ERβ): potent pan-antagonist of both forms of the human estrogen receptor

SMILES: C[C@]12CC[C@@H]3c4ccc(O)cc4C[C@@H](CCCCCCCCC[S+]([O-])CCCC(F)(F)C(F)(F)F)[C@H]3[C@@H]1CC[C@@H]2O (stereo partly drawn) [ICI182,780, reference compound]
agonist activity on ER-TAF1 (ER-TAF1): functionally inactive | interaction of ER with target DNA (ER-VP16): facilitate efficient interactions of ER with target DNA

SMILES: C[C@]12CC[C@@H]3c4ccc(O)cc4CC[C@H]3[C@@H]1CC[C@@H]2O [estradiol, 17β-estradiol, reference compound]
bone mineral density, lumbar spine [2]: BMD was maintained

SMILES: O=C(c1ccc(OCCN2CCCCC2)cc1)c1c(-c2ccc(O)cc2)sc2cc(O)ccc12 [raloxifene, reference compound]
inhibition of estradiol activated transcription, ERβ (ERβ): neither raloxifene nor idoxifene manifest potent antagonist activity

lowest dose with uterotrophic activity [3]: 0.1 µmol/kg/day
SMILES: CC/C(=C(\c1ccccc1)c1ccc(OCCN(C)C)cc1)c1ccccc1 [tamoxifen, reference compound]
tumor growth (MCF-7/LCC2): equally inhibit growth of this tumor
